According to ChEMBL document CHEMBL1275589, “Molecular epidemiology, sequence types, and plasmid analyses of KPC-producing Klebsiella pneumoniae strains in Israel” (2010):
Values after ≈ are worked out from the molar mass of the structure shown.

Key:
Klebsiella pneumoniae [1] = assay: Antimicrobial activity against carbapenem-resistant KPC-2 producing Klebsiella pneumoniae 475 ST 277 expressing beta-lactamase SHV-27, CTX-M-15 and OXA-4 by agar dilution method in presence of beta-lactamase inhibitor Tazobactam; format: functional
Klebsiella pneumoniae [2] = assay: Antimicrobial activity against carbapenem-resistant KPC-2 producing Klebsiella pneumoniae 475transformant by agar dilution method in presence of beta-lactamase inhibitor Tazobactam; format: functional
Klebsiella pneumoniae [3] = assay: Antimicrobial activity against carbapenem-resistant KPC-2 producing Klebsiella pneumoniae 469 ST 277 expressing beta-lactamase SHV-27, CTX-M-15 and OXA-4 by agar dilution method in presence of beta-lactamase inhibitor Tazobactam; format: functional
Klebsiella pneumoniae [4] = assay: Antimicrobial activity against carbapenem-resistant KPC-2 producing Klebsiella pneumoniae 469 transformant by agar dilution method in presence of beta-lactamase inhibitor Tazobactam; format: functional
Klebsiella pneumoniae [5] = assay: Antimicrobial activity against carbapenem-resistant KPC-2 producing Klebsiella pneumoniae 523 ST 340 expressing beta-lactamase TEM-1, SHV-11 and OXA-2 by agar dilution method in presence of beta-lactamase inhibitor Tazobactam; format: functional
Klebsiella pneumoniae [6] = assay: Antimicrobial activity against carbapenem-resistant KPC-2 producing Klebsiella pneumoniae 523transformant by agar dilution method in presence of beta-lactamase inhibitor Tazobactam; format: functional
Klebsiella pneumoniae [7] = assay: Antimicrobial activity against carbapenem-resistant KPC-2 producing Klebsiella pneumoniae 588 ST 340 expressing beta-lactamase TEM-1 and SHV-11 by agar dilution method in presence of beta-lactamase inhibitor Tazobactam; format: functional
Klebsiella pneumoniae [8] = assay: Antimicrobial activity against carbapenem-resistant KPC-2 producing Klebsiella pneumoniae 588 transformant by agar dilution method in presence of beta-lactamase inhibitor Tazobactam; format: functional
Klebsiella pneumoniae [9] = assay: Antimicrobial activity against carbapenem-resistant KPC-2 producing Klebsiella pneumoniae 365 transformant by agar dilution method in presence of beta-lactamase inhibitor Tazobactam; format: functional
Klebsiella pneumoniae [10] = assay: Antimicrobial activity against carbapenem-resistant KPC-2 producing Klebsiella pneumoniae 531 ST 376 expressing beta-lactamase SHV-1 by agar dilution method in presence of beta-lactamase inhibitor Tazobactam; format: functional
Klebsiella pneumoniae [11] = assay: Antimicrobial activity against carbapenem-resistant KPC-2 producing Klebsiella pneumoniae 531 transformant by agar dilution method in presence of beta-lactamase inhibitor Tazobactam; format: functional
Klebsiella pneumoniae [12] = assay: Antimicrobial activity against carbapenem-resistant KPC-2 producing Klebsiella pneumoniae 525 ST 376 expressing beta-lactamase SHV-1 by agar dilution method in presence of beta-lactamase inhibitor Tazobactam; format: functional
Klebsiella pneumoniae [13] = assay: Antimicrobial activity against carbapenem-resistant KPC-2 producing Klebsiella pneumoniae 525 transformant by agar dilution method in presence of beta-lactamase inhibitor Tazobactam; format: functional
Klebsiella pneumoniae [14] = assay: Antimicrobial activity against carbapenem-resistant KPC-2 producing Klebsiella pneumoniae 526 ST 376 expressing beta-lactamase SHV-1 by agar dilution method in presence of beta-lactamase inhibitor Tazobactam; format: functional
Klebsiella pneumoniae [15] = assay: Antimicrobial activity against carbapenem-resistant KPC-2 producing Klebsiella pneumoniae 526 transformant by agar dilution method in presence of beta-lactamase inhibitor Tazobactam; format: functional
Klebsiella pneumoniae [16] = assay: Antimicrobial activity against KPC-3 producing Klebsiella pneumoniae 549 ST 327 expressing beta-lactamase TEM-1 and CTX-M-2 by agar dilution method in presence of beta-lactamase inhibitor Tazobactam; format: functional
Klebsiella pneumoniae [17] = assay: Antimicrobial activity against KPC-3 producing Klebsiella pneumoniae 549 transformant by agar dilution method in presence of beta-lactamase inhibitor Tazobactam; format: functional
Klebsiella pneumoniae [18] = assay: Antimicrobial activity against KPC-3 producing Klebsiella pneumoniae 557 transformant by agar dilution method in presence of beta-lactamase inhibitor Tazobactam; format: functional
Escherichia coli [19] = assay: Antimicrobial activity against Escherichia coli Genehogs by agar dilution method in presence of beta-lactamase inhibitor Tazobactam; format: functional
Klebsiella pneumoniae [20] = assay: Antimicrobial activity against KPC-3 producing Klebsiella pneumoniae 557 ST 258 expressing beta-lactamase TEM-1 by agar dilution method in presence of beta-lactamase inhibitor Tazobactam
Klebsiella pneumoniae [21] = assay: Antimicrobial activity against carbapenem-resistant KPC-2 producing Klebsiella pneumoniae 365 ST 376 expressing beta-lactamase SHV-1, CTX-M-15 and OXA-4 by agar dilution method in presence of beta-lactamase inhibitor Tazobactam
Klebsiella pneumoniae [22] = assay: Antimicrobial activity against carbapenem-resistant KPC-2 producing Klebsiella pneumoniae 523 ST 340 expressing beta-lactamase TEM-1, SHV-11 and OXA-2 by Etest; format: functional
Klebsiella pneumoniae [23] = assay: Antimicrobial activity against carbapenem-resistant KPC-2 producing Klebsiella pneumoniae 523 transformant by Etest; format: functional
Klebsiella pneumoniae [24] = assay: Antimicrobial activity against carbapenem-resistant KPC-2 producing Klebsiella pneumoniae 588 ST 340 expressing beta-lactamase TEM-1 and SHV-11 by Etest; format: functional
Klebsiella pneumoniae [25] = assay: Antimicrobial activity against carbapenem-resistant KPC-2 producing Klebsiella pneumoniae 588 transformant by Etest; format: functional
Klebsiella pneumoniae [26] = assay: Antimicrobial activity against carbapenem-resistant KPC-2 producing Klebsiella pneumoniae 365 transformant by Etest; format: functional
Klebsiella pneumoniae [27] = assay: Antimicrobial activity against carbapenem-resistant KPC-2 producing Klebsiella pneumoniae 531 ST 376 expressing beta-lactamase SHV-1 by Etest; format: functional
Klebsiella pneumoniae [28] = assay: Antimicrobial activity against carbapenem-resistant KPC-2 producing Klebsiella pneumoniae 531 transformant by Etest; format: functional
Klebsiella pneumoniae [29] = assay: Antimicrobial activity against carbapenem-resistant KPC-2 producing Klebsiella pneumoniae 525 ST 376 expressing beta-lactamase SHV-1 by Etest; format: functional
Klebsiella pneumoniae [30] = assay: Antimicrobial activity against carbapenem-resistant KPC-2 producing Klebsiella pneumoniae 525 transformant by Etest; format: functional
Klebsiella pneumoniae [31] = assay: Antimicrobial activity against carbapenem-resistant KPC-2 producing Klebsiella pneumoniae 526 ST 376 expressing beta-lactamase SHV-1 by Etest; format: functional
Klebsiella pneumoniae [32] = assay: Antimicrobial activity against carbapenem-resistant KPC-2 producing Klebsiella pneumoniae 526 transformant by Etest; format: functional
Klebsiella pneumoniae [33] = assay: Antimicrobial activity against KPC-3 producing Klebsiella pneumoniae 549 ST 327 expressing beta-lactamase TEM-1 and CTX-M-2 by Etest; format: functional
Klebsiella pneumoniae [34] = assay: Antimicrobial activity against KPC-3 producing Klebsiella pneumoniae 549 transformant by Etest; format: functional
Klebsiella pneumoniae [35] = assay: Antimicrobial activity against KPC-3 producing Klebsiella pneumoniae 557 transformant by Etest; format: functional
Escherichia coli [36] = assay: Antimicrobial activity against Escherichia coli Genehogs by Etest; format: functional
Klebsiella pneumoniae [37] = assay: Antimicrobial activity against carbapenem-resistant KPC-2 producing Klebsiella pneumoniae 475 ST 277 expressing beta-lactamase SHV-27, CTX-M-15 and OXA-4 by Etest; format: functional
Klebsiella pneumoniae [38] = assay: Antimicrobial activity against carbapenem-resistant KPC-2 producing Klebsiella pneumoniae 475 transformant by Etest; format: functional
Klebsiella pneumoniae [39] = assay: Antimicrobial activity against carbapenem-resistant KPC-2 producing Klebsiella pneumoniae 469 ST 277 expressing beta-lactamase SHV-27, CTX-M-15 and OXA-4 by Etest; format: functional
Klebsiella pneumoniae [40] = assay: Antimicrobial activity against carbapenem-resistant KPC-2 producing Klebsiella pneumoniae 469 transformant by Etest; format: functional
Klebsiella pneumoniae [41] = assay: Antimicrobial activity against KPC-3 producing Klebsiella pneumoniae 557 ST 258 expressing beta-lactamase TEM-1 by Etest
Klebsiella pneumoniae [42] = assay: Antimicrobial activity against carbapenem-resistant KPC-2 producing Klebsiella pneumoniae 365 ST 376 expressing beta-lactamase SHV-1, CTX-M-15 and OXA-4 by Etest

In the case of `CCN1CCN(C(=O)N[C@@H](C(=O)N[C@@H]2C(=O)N3[C@@H]2SC(C)(C)[C@@H]3C(=O)O)c2ccccc2)C(=O)C1=O` [PIPERACILLIN], the MIC (Klebsiella pneumoniae [1]) is reported as > 128 µg/mL, the MIC (Klebsiella pneumoniae [2]) is reported as > 128 µg/mL and the MIC (Klebsiella pneumoniae [3]) is reported as > 128 µg/mL. The MIC (Klebsiella pneumoniae [4]) was > 128 µg/mL, the MIC (Klebsiella pneumoniae [5]) was 128 µg/mL and the MIC (Klebsiella pneumoniae [6]) was > 128 µg/mL. The MIC (Klebsiella pneumoniae [7]) was > 128 µg/mL, the MIC (Klebsiella pneumoniae [8]) was > 128 µg/mL and the MIC (Klebsiella pneumoniae [9]) was > 128 µg/mL. For the same compound, the MIC (Klebsiella pneumoniae [10]) was > 128 µg/mL, the MIC (Klebsiella pneumoniae [11]) was 64 µg/mL and the MIC (Klebsiella pneumoniae [12]) was > 128 µg/mL. For the same compound, the MIC (Klebsiella pneumoniae [13]) was 64 µg/mL, the MIC (Klebsiella pneumoniae [14]) was > 128 µg/mL and the MIC (Klebsiella pneumoniae [15]) was > 128 µg/mL. The MIC (Klebsiella pneumoniae [16]) was > 320 µg/mL, the MIC (Klebsiella pneumoniae [17]) was 64 µg/mL and the MIC (Klebsiella pneumoniae [18]) was 64 µg/mL. For the same compound, the MIC (Escherichia coli [19]) was < 4 µg/mL, the MIC (Klebsiella pneumoniae [20]) was > 320 µg/mL and the MIC (Klebsiella pneumoniae [21]) was > 128 µg/mL.
`CN(C)c1cc(NC(=O)CNC(C)(C)C)c(O)c2c1C[C@H]1C[C@H]3[C@H](N(C)C)C(O)=C(C(N)=O)C(=O)[C@@]3(O)C(O)=C1C2=O` [TIGECYCLINE] showed an MIC (Klebsiella pneumoniae [22]) of 0.5 µg/mL (≈ 0.854 µM), an MIC (Klebsiella pneumoniae [23]) of 0.125 µg/mL (≈ 0.213 µM) and an MIC (Klebsiella pneumoniae [24]) of 2 µg/mL (≈ 3.41 µM). It also gave an MIC (Klebsiella pneumoniae [25]) of 0.125 µg/mL (≈ 0.213 µM), an MIC (Klebsiella pneumoniae [26]) of 0.125 µg/mL (≈ 0.213 µM) and an MIC (Klebsiella pneumoniae [27]) of 1.5 µg/mL (≈ 2.56 µM). The MIC (Klebsiella pneumoniae [28]) was 0.125 µg/mL (≈ 0.213 µM), the MIC (Klebsiella pneumoniae [29]) was 1 µg/mL (≈ 1.71 µM) and the MIC (Klebsiella pneumoniae [30]) was 0.125 µg/mL (≈ 0.213 µM). It also gave an MIC (Klebsiella pneumoniae [31]) of 1.5 µg/mL (≈ 2.56 µM), an MIC (Klebsiella pneumoniae [32]) of 0.125 µg/mL (≈ 0.213 µM) and an MIC (Klebsiella pneumoniae [33]) of 0.75 µg/mL (≈ 1.28 µM). The MIC (Klebsiella pneumoniae [34]) was 0.19 µg/mL (≈ 0.324 µM), the MIC (Klebsiella pneumoniae [35]) was 0.125 µg/mL (≈ 0.213 µM) and the MIC (Escherichia coli [36]) was 0.094 µg/mL (≈ 0.161 µM). It also gave an MIC (Klebsiella pneumoniae [37]) of 4 µg/mL (≈ 6.83 µM), an MIC (Klebsiella pneumoniae [38]) of 0.125 µg/mL (≈ 0.213 µM) and an MIC (Klebsiella pneumoniae [39]) of 1 µg/mL (≈ 1.71 µM). It also gave an MIC (Klebsiella pneumoniae [40]) of 0.125 µg/mL (≈ 0.213 µM), an MIC (Klebsiella pneumoniae [41]) of 4 µg/mL (≈ 6.83 µM) and an MIC (Klebsiella pneumoniae [42]) of 1 µg/mL (≈ 1.71 µM).
